Measurements as given in ChEMBL document CHEMBL3286148, “Aminoazabenzimidazoles, a novel class of orally active antimalarial agents” (J Med Chem, 2014).
In brackets after ≈: the same amount, converted by molar mass.

Columns and labels:
[1] = system: Plasmodium falciparum; test: Antiplasmodial activity against Plasmodium falciparum Dd2; assay type: functional, organism-based
[2] = system: Plasmodium falciparum; test: Antiplasmodial activity against Plasmodium falciparum Dd2 harboring HSP90 mutant; assay type: functional, organism-based
[3] = system: Plasmodium falciparum; test: Antiplasmodial activity against Plasmodium falciparum Dd2 harboring CRT mutant; assay type: functional, organism-based
[4] = system: Plasmodium falciparum; test: Antiplasmodial activity against Plasmodium falciparum Dd2 harboring CYTb-Qi mutant; assay type: functional, organism-based
[5] = system: Plasmodium falciparum; test: Antiplasmodial activity against Plasmodium falciparum Dd2 harboring DHODH mutant; assay type: functional, organism-based
[6] = system: Plasmodium falciparum; test: microbe, parasite or virus in culture; details: K1, 72 h
[7] = system: Plasmodium falciparum; test: microbe, parasite or virus in culture; details: NF54, 72 h
[8] = Selectivity index, ratio of IC50 for human A549 cells to IC50 for Plasmodium falciparum; assay type: toxicity, cell-based; details: read-out: Ratio IC50
[9] = system: Plasmodium falciparum; test: microbe, parasite or virus in culture; details: W2, 72 h
Description: Antiplasmodial activity against Plasmodium falciparum W2 after 72 hrs by SYBR I method

[10] = system: Plasmodium falciparum; test: microbe, parasite or virus in culture; details: 7G8, 72 h
Description: Antiplasmodial activity against Plasmodium falciparum 7G8 after 72 hrs by SYBR I method

[11] = system: Plasmodium falciparum; test: microbe, parasite or virus in culture; details: Dd2, 72 h
Description: Antiplasmodial activity against Plasmodium falciparum Dd2 after 72 hrs by SYBR I method

[12] = system: Plasmodium falciparum; test: microbe, parasite or virus in culture; details: SB1, 72 h
Description: Antiplasmodial activity against Plasmodium falciparum SB1 after 72 hrs by SYBR I method

[13] = target: Voltage-gated inwardly rectifying potassium channel KCNH2 (Homo sapiens, UniProt Q12809); test: Inhibition of human ERG
[14] = Clearance in mouse liver microsomes; assay type: ADME; details: read-out: CLH
[15] = Clearance in rat hepatocytes assessed per 1E6 cells; assay type: ADME, cell-based, Hepatocyte; details: read-out: CLH
[16] = Clearance in human liver microsomes; assay type: ADME; details: read-out: CLH
[17] = Aqueous solubility of the compound; assay type: physicochemical; details: buffer
[18] = target: Cytochrome P450 2C19 (Homo sapiens, UniProt P33261); test: Inhibition of CYP2C19 (unknown origin); assay type: ADME
[19] = target: Cytochrome P450 2C9 (Homo sapiens, UniProt P11712); test: Inhibition of CYP2C9 (unknown origin); assay type: ADME
[20] = Fraction unbound in human plasma; assay type: ADME, cell-free
[21] = Lipophilicity, log D of the compound; assay type: physicochemical; details: octanol/water
[22] = target: Cytochrome P450 2D6 (Homo sapiens, UniProt P10635); test: Inhibition of CYP2D6 (unknown origin); assay type: ADME
[23] = target: T1, Cytochrome P450 1A2 (Homo sapiens, UniProt P05177); test: Inhibition of CYP1A2 (unknown origin); assay type: ADME
T1 sequence (P05177 whole entry): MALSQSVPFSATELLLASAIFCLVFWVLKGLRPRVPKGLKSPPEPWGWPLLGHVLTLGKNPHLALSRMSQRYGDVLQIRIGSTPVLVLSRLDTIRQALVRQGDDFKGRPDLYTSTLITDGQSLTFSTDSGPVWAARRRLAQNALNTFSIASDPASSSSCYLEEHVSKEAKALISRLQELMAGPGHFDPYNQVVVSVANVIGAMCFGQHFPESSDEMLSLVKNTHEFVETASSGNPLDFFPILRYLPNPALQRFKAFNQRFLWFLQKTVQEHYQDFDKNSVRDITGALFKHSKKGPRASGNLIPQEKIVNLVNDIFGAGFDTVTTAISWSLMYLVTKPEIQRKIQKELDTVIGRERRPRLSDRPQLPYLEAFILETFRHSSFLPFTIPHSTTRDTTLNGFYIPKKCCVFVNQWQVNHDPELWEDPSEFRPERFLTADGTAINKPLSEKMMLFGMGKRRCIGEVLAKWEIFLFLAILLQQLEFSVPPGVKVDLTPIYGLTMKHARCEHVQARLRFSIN

[24] = target: Cytochrome P450 3A4 (Homo sapiens, UniProt P08684); test: Inhibition of CYP3A4 (unknown origin); assay type: ADME
Cytochrome P450 3A4, sequence (P08684 whole entry): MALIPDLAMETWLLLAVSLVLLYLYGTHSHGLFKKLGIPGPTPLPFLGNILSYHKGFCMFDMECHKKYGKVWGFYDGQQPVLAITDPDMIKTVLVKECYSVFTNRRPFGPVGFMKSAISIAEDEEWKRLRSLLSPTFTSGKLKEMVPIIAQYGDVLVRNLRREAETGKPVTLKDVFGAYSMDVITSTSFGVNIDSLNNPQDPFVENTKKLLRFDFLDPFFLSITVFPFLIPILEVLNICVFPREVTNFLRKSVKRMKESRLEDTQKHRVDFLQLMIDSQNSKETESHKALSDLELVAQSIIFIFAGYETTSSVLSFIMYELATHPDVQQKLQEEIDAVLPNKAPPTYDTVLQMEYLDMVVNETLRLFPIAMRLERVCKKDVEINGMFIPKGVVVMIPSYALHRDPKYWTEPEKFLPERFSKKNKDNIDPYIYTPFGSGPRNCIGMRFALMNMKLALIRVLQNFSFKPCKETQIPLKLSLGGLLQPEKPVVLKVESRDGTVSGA

Cytochrome P450 2D6, sequence (P10635 whole entry): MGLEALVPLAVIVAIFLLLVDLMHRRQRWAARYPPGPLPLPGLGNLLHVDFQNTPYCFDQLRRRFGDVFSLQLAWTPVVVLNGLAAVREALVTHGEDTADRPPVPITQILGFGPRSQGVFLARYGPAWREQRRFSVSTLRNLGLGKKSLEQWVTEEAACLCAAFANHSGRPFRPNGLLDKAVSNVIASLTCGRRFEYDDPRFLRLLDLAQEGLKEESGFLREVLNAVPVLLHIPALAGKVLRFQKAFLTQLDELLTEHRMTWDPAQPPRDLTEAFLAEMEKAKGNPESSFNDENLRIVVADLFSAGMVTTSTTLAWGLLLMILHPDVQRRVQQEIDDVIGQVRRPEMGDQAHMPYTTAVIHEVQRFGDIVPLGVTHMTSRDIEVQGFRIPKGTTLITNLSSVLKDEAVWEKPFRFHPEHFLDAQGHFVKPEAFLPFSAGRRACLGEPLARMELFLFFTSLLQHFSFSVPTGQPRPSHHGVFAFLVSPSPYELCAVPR
Cytochrome P450 2C9, sequence (P11712 whole entry): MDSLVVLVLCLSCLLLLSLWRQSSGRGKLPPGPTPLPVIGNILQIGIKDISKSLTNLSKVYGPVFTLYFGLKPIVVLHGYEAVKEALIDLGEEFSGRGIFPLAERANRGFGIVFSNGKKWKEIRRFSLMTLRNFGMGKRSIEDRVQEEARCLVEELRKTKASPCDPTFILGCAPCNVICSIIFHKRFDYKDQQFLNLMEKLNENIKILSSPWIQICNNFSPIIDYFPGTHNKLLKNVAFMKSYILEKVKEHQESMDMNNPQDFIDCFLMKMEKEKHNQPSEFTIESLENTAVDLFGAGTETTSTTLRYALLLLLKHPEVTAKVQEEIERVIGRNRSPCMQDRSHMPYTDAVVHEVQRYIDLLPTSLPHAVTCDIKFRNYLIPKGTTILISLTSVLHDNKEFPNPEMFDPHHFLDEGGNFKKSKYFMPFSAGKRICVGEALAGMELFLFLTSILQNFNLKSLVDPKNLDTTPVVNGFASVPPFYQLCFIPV
Voltage-gated inwardly rectifying potassium channel KCNH2, sequence (Q12809 whole entry): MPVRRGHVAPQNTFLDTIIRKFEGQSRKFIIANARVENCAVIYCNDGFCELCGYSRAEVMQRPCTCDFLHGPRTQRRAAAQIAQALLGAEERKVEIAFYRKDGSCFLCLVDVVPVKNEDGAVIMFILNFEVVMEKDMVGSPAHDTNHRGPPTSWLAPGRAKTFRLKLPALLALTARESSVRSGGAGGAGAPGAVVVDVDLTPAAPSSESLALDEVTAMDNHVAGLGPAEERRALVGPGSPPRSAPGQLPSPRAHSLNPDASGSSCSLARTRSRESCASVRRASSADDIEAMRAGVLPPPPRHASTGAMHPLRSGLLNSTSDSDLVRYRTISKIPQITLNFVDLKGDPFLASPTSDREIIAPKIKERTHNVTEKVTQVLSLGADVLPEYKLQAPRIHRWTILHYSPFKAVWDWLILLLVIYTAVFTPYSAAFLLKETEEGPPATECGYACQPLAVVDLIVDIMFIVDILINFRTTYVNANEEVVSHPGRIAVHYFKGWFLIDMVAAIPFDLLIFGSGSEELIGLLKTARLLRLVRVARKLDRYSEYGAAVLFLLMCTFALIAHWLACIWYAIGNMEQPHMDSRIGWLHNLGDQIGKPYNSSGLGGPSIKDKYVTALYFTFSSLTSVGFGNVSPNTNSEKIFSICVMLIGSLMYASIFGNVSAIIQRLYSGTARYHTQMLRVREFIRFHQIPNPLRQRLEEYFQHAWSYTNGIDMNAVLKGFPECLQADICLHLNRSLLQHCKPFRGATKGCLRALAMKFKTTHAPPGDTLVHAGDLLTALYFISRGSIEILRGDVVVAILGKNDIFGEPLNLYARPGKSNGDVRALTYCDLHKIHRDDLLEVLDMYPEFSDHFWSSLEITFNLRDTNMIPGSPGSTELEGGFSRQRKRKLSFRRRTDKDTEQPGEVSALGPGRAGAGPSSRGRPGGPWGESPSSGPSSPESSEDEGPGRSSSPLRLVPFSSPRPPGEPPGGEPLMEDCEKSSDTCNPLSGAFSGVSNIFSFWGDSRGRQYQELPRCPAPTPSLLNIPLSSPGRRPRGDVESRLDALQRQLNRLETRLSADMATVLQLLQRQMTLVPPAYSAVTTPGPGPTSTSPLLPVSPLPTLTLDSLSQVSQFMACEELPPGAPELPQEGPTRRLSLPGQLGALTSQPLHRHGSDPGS
Cytochrome P450 2C19, sequence (P33261 whole entry): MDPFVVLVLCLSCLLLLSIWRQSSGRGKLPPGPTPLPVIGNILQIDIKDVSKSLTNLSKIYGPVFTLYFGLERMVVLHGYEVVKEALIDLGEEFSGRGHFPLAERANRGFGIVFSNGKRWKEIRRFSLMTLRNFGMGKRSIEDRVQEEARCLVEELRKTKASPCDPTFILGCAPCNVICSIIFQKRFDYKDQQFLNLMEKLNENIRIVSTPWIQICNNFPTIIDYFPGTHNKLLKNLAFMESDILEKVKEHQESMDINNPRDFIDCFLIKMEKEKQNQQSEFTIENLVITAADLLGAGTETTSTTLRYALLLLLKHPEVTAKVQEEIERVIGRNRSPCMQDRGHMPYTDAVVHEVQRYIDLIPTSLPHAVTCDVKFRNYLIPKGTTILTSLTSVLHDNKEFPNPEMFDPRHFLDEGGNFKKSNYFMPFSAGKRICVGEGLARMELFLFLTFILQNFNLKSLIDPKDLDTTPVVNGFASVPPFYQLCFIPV

| Compound | IC50 [6] | IC50 [7] | selectivity ratio [8] | IC50 [13] | hepatocyte CLint [15] | microsomal CLint [16] | further results |
| --- | --- | --- | --- | --- | --- | --- | --- |
| CN1CCN(C(=O)c2ccc3c(c2)N(Cc2c(F)cccc2Cl)C(=O)c2ccccc2S3)CC1 |  |  |  |  |  |  | IC50 [1]: 0.0073 µM; IC50 [2]: 0.00842 µM; IC50 [3]: 1.04 µM; IC50 [4]: 0.00316 µM; IC50 [5]: 0.0169 µM |
| Cc1nc2c(C#N)cccc2n1-c1ccc(C(=O)NC2CC2)s1 |  |  |  |  |  |  | IC50 [1]: 0.00579 µM; IC50 [2]: 0.0162 µM; IC50 [3]: 0.00507 µM; IC50 [4]: 0.00994 µM; IC50 [5]: 0.0768 µM |
| Nc1nc2ccccc2n1-c1ccccc1O | 0.054 µM | 0.084 µM | 1190 |  |  |  | IC50 [9]: 0.26 µM; IC50 [10]: 0.0661 µM; IC50 [11]: 0.329 µM; IC50 [12]: 0.164 µM |
| Nc1nccn1CC(O)c1ccc(Cl)cc1Cl (racemic) | 0.28 µM | 0.38 µM | > 263 |  |  |  |  |
| Nc1nccn1CC(O)c1ccc(Cl)cc1F (racemic) | > 2 µM | > 2 µM | > 50 | 60 µM |  |  |  |
| Cc1cc(Cl)ccc1C(O)Cn1ccnc1N (racemic) | > 2 µM | > 2 µM | > 50 |  |  |  |  |
| Nc1nccn1CC(O)c1cccc(Cl)c1Cl (racemic) | 0.23 µM | 0.35 µM |  |  |  |  |  |
| Cc1cn(CC(O)c2ccc(Cl)cc2Cl)c(N)n1 (racemic) | 0.25 µM | 0.38 µM |  |  |  |  |  |
| Cc1nc(N)n(CC(O)c2ccc(Cl)cc2Cl)c1C (racemic) | 0.2 µM | 0.3 µM | 220 | > 33.3 µM |  |  |  |
| Nc1nc(C2CC2)cn1CC(O)c1ccc(Cl)cc1Cl (racemic) | 0.07 µM | 0.12 µM | 241 | 4.5 µM |  |  |  |
| Nc1nc(-c2ccc(F)cc2)cn1CC(O)c1ccc(C(F)(F)F)cc1Cl (racemic) | 0.06 µM | 0.14 µM | 72 | 25 µM |  |  |  |
| Nc1nc2ccccc2n1CC(O)c1ccc(Cl)cc1Cl (racemic) | 0.007 µM | 0.018 µM |  |  | 155 µL/min/1e6 cells | 25 µL/min/mg | microsomal CLint [14]: 213 µL/min/mg; IC50 [9]: 0.0116 µM; IC50 [10]: 0.00409 µM; IC50 [11]: 0.03 µM; IC50 [12]: 0.0425 µM |
| N#Cc1ccc2nc(N)n(CC(O)c3cccc(Cl)c3Cl)c2c1 (racemic) | 0.3 µM | 0.029 µM |  |  | 53 µL/min/1e6 cells | 96 µL/min/mg |  |
| CS(=O)(=O)c1ccc2nc(N)n(CC(O)c3cccc(Cl)c3Cl)c2c1 (racemic) | > 2 µM | > 2 µM | > 50 | > 33.3 µM | 44 µL/min/1e6 cells | 68 µL/min/mg |  |
| Nc1nc2ccc(Cl)cc2n1CC(O)c1cccc(Cl)c1Cl (racemic) | 0.04 µM | 0.32 µM | 2.3 | > 33.3 µM | 22 µL/min/1e6 cells | 49 µL/min/mg |  |
| Nc1nc2ccc(C(F)(F)F)cc2n1CC(O)c1ccc(C(F)(F)F)cc1Cl (racemic) | 0.01 µM | 0.053 µM | 94 | > 10.5 µM | 31 µL/min/1e6 cells | 9 µL/min/mg | solubility [17]: 3 µM (≈ 1.27 µg/mL); microsomal CLint [14]: 62 µL/min/mg; IC50 [18]: 2.7 µM; IC50 [19]: 27.9 µM; fraction unbound [20]: < 0.01; logD [21]: > 4.6; IC50 [22]: 26.3 µM; IC50 [9]: 0.0241 µM; IC50 [23]: 29.4 µM; IC50 [10]: 0.00325 µM; IC50 [11]: 0.0487 µM; IC50 [24]: > 30 µM; IC50 [12]: 0.121 µM |

| Compound | IC50 [6] | IC50 [7] | selectivity ratio [8] | IC50 [13] | hepatocyte CLint [15] | microsomal CLint [16] | further results |
| --- | --- | --- | --- | --- | --- | --- | --- |
| Nc1nc2cnccc2n1CC(O)c1ccc(Cl)cc1Cl (racemic) | > 0.5 µM | > 2 µM | > 25 |  | 14 µL/min/1e6 cells | 5 µL/min/mg | microsomal CLint [14]: 41 µL/min/mg |
| Nc1nc2cccnc2n1CC(O)c1cccc(Cl)c1Cl (racemic) | 0.18 µM | 0.34 µM | 26 | > 33.3 µM | 110 µL/min/1e6 cells | 69 µL/min/mg | solubility [17]: 26 µM (≈ 8.4 µg/mL); IC50 [18]: 10.2 µM; IC50 [19]: > 30 µM; fraction unbound [20]: 0.118; logD [21]: 3; IC50 [22]: > 30 µM; IC50 [23]: 5.2 µM; IC50 [24]: > 30 µM |
| CN1CCN(c2ccc3nc(N)n(CC(O)c4ccc(C(F)(F)F)cc4Cl)c3n2)CC1 (racemic) | 0.085 µM | 0.089 µM | 348 | 12.2 µM | 106 µL/min/1e6 cells | 21 µL/min/mg | solubility [17]: 118 µM (≈ 53.7 µg/mL); microsomal CLint [14]: 102 µL/min/mg; IC50 [18]: 5 µM; IC50 [19]: > 30 µM; fraction unbound [20]: 0.234; logD [21]: 2.8; IC50 [22]: 27.9 µM; IC50 [9]: 0.156 µM; IC50 [23]: > 30 µM; IC50 [10]: 0.0379 µM; IC50 [11]: 0.37 µM; IC50 [24]: 14.1 µM; IC50 [12]: 0.22 µM |
| Nc1nc2ccc(NCC(F)(F)F)nc2n1CC(O)c1ccc(Cl)cc1Cl (racemic) | 0.014 µM | 0.04 µM | 375 | 3.5 µM | 198 µL/min/1e6 cells | 17 µL/min/mg | microsomal CLint [14]: 87 µL/min/mg |
| Nc1nc2ccc(C3CC3)nc2n1CC(O)c1ccc(Cl)cc1Cl (racemic) | 0.022 µM | 0.096 µM | > 260 |  | 94 µL/min/1e6 cells | 47 µL/min/mg | microsomal CLint [14]: > 130 µL/min/mg |
| Nc1nc2ccc(C(=O)NC3CC3)nc2n1CC(O)c1ccc(Cl)cc1Cl (racemic) | > 0.5 µM | > 2 µM | > 10 |  |  |  |  |
| Nc1nc2ccc(OC3CNC3)nc2n1CC(O)c1ccc(C(F)(F)F)cc1Cl (racemic) | > 0.5 µM | > 2 µM | > 50 | > 33.3 µM | 14 µL/min/1e6 cells | < 4 µL/min/mg |  |
| Nc1nnc(C2CC2)n1CC(O)c1ccc(C(F)(F)F)cc1Cl (racemic) | > 2 µM | > 2 µM | > 50 |  |  |  |  |
| Nc1nnnn1CC(O)c1c(Cl)cccc1Cl (racemic) | > 2 µM | > 2 µM | > 50 |  |  |  |  |
| Nc1ncccc1CC(O)c1cccc(Cl)c1Cl (racemic) | 0.05 µM | 0.18 µM | 294 |  |  |  | IC50 [9]: 0.11 µM; IC50 [10]: 0.0293 µM; IC50 [11]: 0.41 µM; IC50 [12]: 0.472 µM |
| NC1=Nc2ccccc2CN1CC(O)c1ccc(Cl)cc1Cl (racemic) | 0.025 µM | 0.177 µM | 141 |  |  |  |  |
| C[C@@H]1CC[C@H]2[C@@H](C)C(=O)O[C@@H]3O[C@@]4(C)CC[C@@H]1[C@]32OO4 [ARTEMISININ] | 0.00647 µM | 0.00705 µM |  |  |  |  | IC50 [1]: 0.00151 µM; IC50 [2]: 0.00129 µM; IC50 [3]: 0.00184 µM; IC50 [4]: 0.00126 µM; IC50 [5]: 0.00181 µM; IC50 [9]: 0.00652 µM; IC50 [10]: 0.0013 µM; IC50 [11]: 0.0103 µM; IC50 [12]: 0.0166 µM |
| O=C1C(O)=C([C@H]2CC[C@H](c3ccc(Cl)cc3)CC2)C(=O)c2ccccc21 [ATOVAQUONE] | 0.00226 µM | 0.00136 µM |  |  |  |  | IC50 [9]: 0.00116 µM; IC50 [10]: 0.00232 µM; IC50 [12]: > 2 µM |
| COC1=C2C[C@@H](C)C[C@H](OC)[C@H](O)[C@@H](C)/C=C(\C)[C@H](OC(N)=O)[C@@H](OC)/C=C\C=C(/C)C(=O)NC(=CC1=O)C2=O [GELDANAMYCIN] |  |  |  |  |  |  | IC50 [1]: 0.176 µM; IC50 [3]: 0.204 µM; IC50 [4]: 0.169 µM; IC50 [5]: 0.257 µM |
| CCc1nc(N)nc(N)c1-c1ccc(Cl)cc1 [PYRIMETHAMINE] | 8.56 µM | 0.0283 µM |  |  |  |  | IC50 [9]: 15.4 µM; IC50 [10]: 10 µM; IC50 [11]: 13.8 µM; IC50 [12]: 0.0109 µM |
